Experimental findings from ChEMBL document CHEMBL3817758, “Design and synthesis of dual 5-HT1A and 5-HT7 receptor ligands” (Bioorg Med Chem, 2016) are described below.

Molecules are shown by their SMILES. Some results are limits rather than exact numbers.

Common to all, as to test: biochemical
Assay [1] addresses T1, 5-hydroxytryptamine receptor 2C (Rattus norvegicus, UniProt P08909).
T1 sequence (P08909 whole entry): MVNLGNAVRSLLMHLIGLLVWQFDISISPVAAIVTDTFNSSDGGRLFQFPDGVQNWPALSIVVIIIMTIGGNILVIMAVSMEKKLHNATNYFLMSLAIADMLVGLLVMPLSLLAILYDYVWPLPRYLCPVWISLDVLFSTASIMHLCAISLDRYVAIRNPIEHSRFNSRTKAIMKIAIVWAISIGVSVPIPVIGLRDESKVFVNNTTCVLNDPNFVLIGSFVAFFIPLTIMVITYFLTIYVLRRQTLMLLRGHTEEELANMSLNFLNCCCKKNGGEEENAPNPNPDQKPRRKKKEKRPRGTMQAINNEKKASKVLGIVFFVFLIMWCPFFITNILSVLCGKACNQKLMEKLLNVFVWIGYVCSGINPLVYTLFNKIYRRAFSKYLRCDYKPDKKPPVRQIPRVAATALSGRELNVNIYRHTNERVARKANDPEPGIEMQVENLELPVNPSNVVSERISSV

For assay [2], the target named is D(2) dopamine receptor (Homo sapiens, UniProt P14416).
The target of assay [3] is T2, D(4) dopamine receptor (Rattus norvegicus, UniProt P30729).
T2 sequence (P30729 whole entry): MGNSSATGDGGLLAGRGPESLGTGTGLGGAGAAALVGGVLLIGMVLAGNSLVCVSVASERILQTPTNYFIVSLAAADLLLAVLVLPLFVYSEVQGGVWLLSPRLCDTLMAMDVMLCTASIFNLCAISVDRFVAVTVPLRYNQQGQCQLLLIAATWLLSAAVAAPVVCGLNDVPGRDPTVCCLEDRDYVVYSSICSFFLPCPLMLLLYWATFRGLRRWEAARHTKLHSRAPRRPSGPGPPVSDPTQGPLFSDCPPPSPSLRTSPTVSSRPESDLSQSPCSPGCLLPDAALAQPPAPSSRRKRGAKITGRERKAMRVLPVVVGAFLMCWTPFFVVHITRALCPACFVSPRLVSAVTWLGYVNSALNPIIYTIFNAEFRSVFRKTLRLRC

Assay [4] deals with Sodium-dependent serotonin transporter (Homo sapiens, UniProt P31645).

As a reminder, the Ki is a measure of affinity in units of concentration, obtained from inhibition or displacement. Low values mean a stronger hold on the target, high ones a looser hold on the target.

Sodium-dependent serotonin transporter, sequence (P31645 whole entry): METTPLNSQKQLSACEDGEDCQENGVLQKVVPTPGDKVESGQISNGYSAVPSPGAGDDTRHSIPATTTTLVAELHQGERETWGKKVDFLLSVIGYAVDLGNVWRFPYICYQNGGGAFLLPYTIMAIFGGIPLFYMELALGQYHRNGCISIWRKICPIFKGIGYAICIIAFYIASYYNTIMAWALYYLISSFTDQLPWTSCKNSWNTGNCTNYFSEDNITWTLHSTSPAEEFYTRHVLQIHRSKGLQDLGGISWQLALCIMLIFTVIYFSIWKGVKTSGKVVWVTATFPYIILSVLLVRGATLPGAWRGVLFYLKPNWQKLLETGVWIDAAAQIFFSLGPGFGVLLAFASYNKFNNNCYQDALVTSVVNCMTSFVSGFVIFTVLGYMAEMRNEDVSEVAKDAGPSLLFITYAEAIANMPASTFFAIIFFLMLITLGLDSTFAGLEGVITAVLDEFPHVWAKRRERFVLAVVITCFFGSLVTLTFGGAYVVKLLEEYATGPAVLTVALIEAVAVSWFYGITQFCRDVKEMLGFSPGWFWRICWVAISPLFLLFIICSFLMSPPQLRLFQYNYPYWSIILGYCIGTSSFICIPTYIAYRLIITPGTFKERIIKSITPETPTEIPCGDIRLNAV
D(2) dopamine receptor, sequence (P14416 whole entry): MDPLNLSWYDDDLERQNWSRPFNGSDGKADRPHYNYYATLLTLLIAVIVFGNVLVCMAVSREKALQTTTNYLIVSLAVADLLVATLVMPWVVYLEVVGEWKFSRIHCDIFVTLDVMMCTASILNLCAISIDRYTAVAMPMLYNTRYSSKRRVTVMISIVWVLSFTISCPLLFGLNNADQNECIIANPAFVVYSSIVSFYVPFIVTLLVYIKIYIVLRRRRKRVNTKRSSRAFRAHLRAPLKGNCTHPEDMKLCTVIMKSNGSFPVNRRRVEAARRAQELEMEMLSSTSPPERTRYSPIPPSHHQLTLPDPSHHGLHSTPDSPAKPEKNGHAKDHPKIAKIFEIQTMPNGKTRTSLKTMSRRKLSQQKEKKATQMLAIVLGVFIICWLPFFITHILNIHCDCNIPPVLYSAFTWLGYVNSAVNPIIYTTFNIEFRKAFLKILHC

`COc1ccc(C(=O)CCCN2CCc3ccccc3C2)cc1` yielded a Ki in assay [1] of 1400 nM.

In the case of `O=C1c2ccccc2C(=O)N1CCCCN1CCC2CCCCC2C1` (stereo not given), the Ki in assay [2], in assay [3] and in assay [4] was > 10000 nM each time.

Regarding `NC(=O)c1ccc(C(=O)CCCN2CCc3ccccc3C2)cc1`, the affinity in assay [1], expressed as Ki, was 1890 nM.
